Data taken from ChEMBL document CHEMBL5126613, “Novel CA(1-7)M(2-9) Analogs: Synthesis, Characterization, and Antibacterial Evaluation” (ACS Med Chem Lett, 2022).
Values after ≈ are worked out from the molar mass of the structure shown. Each block holds one compound with its values, some of them ahead of it. Bridge positions count the residues as written; N and C are the ends. Peptide text beside a SMILES is read from it.

Tests used:
[1] = (§1) Selectivity index, ratio of HC50 for hemolytic activity in sheep RBC assessed as 50% hemolysis incubated for 30 mins by microplate reader method to MIC for antibacterial activity against Bacillus subtilis ATCC 6051 assessed as reduction in bacterial growth measured for 18 to 20 hrs by microbroth dilution method; assay type: toxicity; conditions: sheep red blood cells (erythrocytes), read-out: Selectivity Index
[2] = as §1, with “Staphylococcus aureus” for “Bacillus subtilis”, “29213” for “6051”; assay type: toxicity; conditions: sheep red blood cells (erythrocytes), read-out: Selectivity Index
[3] = Hemolytic activity in sheep RBC assessed as 50% hemolysis incubated for 30 mins by microplate reader method; assay type: toxicity, cell-based, Ovis aries, Erythrocyte; conditions: sheep red blood cells (erythrocytes)
[4] = as §1, with “Escherichia coli” for “Bacillus subtilis”, “25922” for “6051”; assay type: toxicity; conditions: sheep red blood cells (erythrocytes), read-out: Selectivity Index
[5] = Hemolytic activity in sheep RBC assessed as hemolysis incubated for 30 mins by microplate reader method; assay type: toxicity, cell-based, Ovis aries, Erythrocyte; conditions: sheep red blood cells (erythrocytes), read-out: Activity
[6] = as §1, with “Pseudomonas aeruginosa” for “Bacillus subtilis”, “27853” for “6051”; assay type: toxicity; conditions: sheep red blood cells (erythrocytes), read-out: Selectivity Index
[7] = biological target: T1, Trypsin (Homo sapiens, UniProt P07477+P07478+P35030); experiment: Stability of compound assessed as trypsin (unknown origin) mediated compound degradation measured at 4.5 hrs by LCMS analysis; assay type: ADME, protein assay; conditions: read-out: Drug degradation
[8] = test system: Escherichia coli; experiment: Antibacterial activity against Escherichia coli ATCC 25922 assessed as reduction in bacterial growth measured for 18 to 20 hrs by microbroth dilution method; assay type: functional; conditions: time 18-20 hrs
[9] = test system: Bacillus subtilis; experiment: Antibacterial activity against Bacillus subtilis ATCC 6051 assessed as reduction in bacterial growth measured for 18 to 20 hrs by microbroth dilution method; assay type: functional; conditions: time 18-20 hrs
[10] = test system: Staphylococcus aureus; experiment: Antibacterial activity against Staphylococcus aureus ATCC 29213 assessed as reduction in bacterial growth measured for 18 to 20 hrs by microbroth dilution method; assay type: functional; conditions: time 18-20 hrs
[11] = test system: Pseudomonas aeruginosa; experiment: Antibacterial activity against Pseudomonas aeruginosa ATCC 27853 assessed as reduction in bacterial growth measured for 18 to 20 hrs by microbroth dilution method; assay type: functional; conditions: time 18-20 hrs
[12] = biological target: T1, Trypsin; experiment: Stability of compound assessed as trypsin (unknown origin) mediated compound degradation by measuring H-WO3LFO6-OH level measured at 60 mins by LCMS analysis; assay type: protein assay
[13] = biological target: T1, Trypsin; experiment: Stability of compound assessed as trypsin (unknown origin) mediated compound degradation by measuring H-O1WO3LFO6-OH level measured at 15 mins by LCMS analysis; assay type: protein assay
[14] = biological target: T1, Trypsin; experiment: Stability of compound assessed as trypsin (unknown origin) mediated compound degradation by measuring H-WO3LFO6-OH level measured at 15 mins by LCMS analysis; assay type: protein assay
[15] = biological target: T1, Trypsin; experiment: Stability of compound assessed as trypsin (unknown origin) mediated compound degradation by measuring H-WO3LFO6-OH level measured at 120 mins by LCMS analysis; assay type: protein assay
[16] = biological target: T1, Trypsin; experiment: Stability of compound assessed as trypsin (unknown origin) mediated compound degradation by measuring H-O1WO3LFO6O7-OH level measured at 15 mins by LCMS analysis; assay type: protein assay
[17] = biological target: T1, Trypsin; experiment: Stability of compound assessed as trypsin (unknown origin) mediated compound degradation by measuring H-O1WO3LFO6O7IGAVLO13-OH level measured at 60 mins by LCMS analysis; assay type: protein assay
[18] = biological target: T1, Trypsin; experiment: Stability of compound assessed as trypsin (unknown origin) mediated compound degradation by measuring H-O1WO3LFO6-OH level measured at 60 mins by LCMS analysis; assay type: protein assay
[19] = biological target: T1, Trypsin; experiment: Stability of compound assessed as trypsin (unknown origin) mediated compound degradation by measuring H-O1WO3LFO6-OH level measured at 270 mins by LCMS analysis; assay type: protein assay
[20] = biological target: T1, Trypsin; experiment: Stability of compound assessed as trypsin (unknown origin) mediated compound degradation by measuring H-O1WO3LFO6O7IGAVLO13VL-NH2 level measured at 270 mins by LCMS analysis; assay type: protein assay
[21] = biological target: T1, Trypsin; experiment: Stability of compound assessed as trypsin (unknown origin) mediated compound degradation by measuring H-O7IGAVLO13VL-NH2 level measured at 120 mins by LCMS analysis; assay type: protein assay
[22] = biological target: T1, Trypsin; experiment: Stability of compound assessed as trypsin (unknown origin) mediated compound degradation by measuring H-O1WO3LFO6O7-OH level measured at 120 mins by LCMS analysis; assay type: protein assay
[23] = biological target: T1, Trypsin; experiment: Stability of compound assessed as trypsin (unknown origin) mediated compound degradation by measuring H-O1WO3LFO6O7IGAVLO13VL-NH2 level measured at 60 mins by LCMS analysis; assay type: protein assay
[24] = biological target: T1, Trypsin; experiment: Stability of compound assessed as trypsin (unknown origin) mediated compound degradation by measuring H-O7IGAVLO13VL-NH2 level measured at 270 mins by LCMS analysis; assay type: protein assay
[25] = biological target: T1, Trypsin; experiment: Stability of compound assessed as trypsin (unknown origin) mediated compound degradation by measuring H-O1WO3LFO6O7IGAVLO13-OH level measured at 120 mins by LCMS analysis; assay type: protein assay
[26] = biological target: T1, Trypsin; experiment: Stability of compound assessed as trypsin (unknown origin) mediated compound degradation by measuring H-O1WO3LFO6O7IGAVLO13VL-NH2 level measured at 15 mins by LCMS analysis; assay type: protein assay
[27] = biological target: T1, Trypsin; experiment: Stability of compound assessed as trypsin (unknown origin) mediated compound degradation by measuring H-WO3LFO6-OH level measured at 270 mins by LCMS analysis; assay type: protein assay
[28] = biological target: T1, Trypsin; experiment: Stability of compound assessed as trypsin (unknown origin) mediated compound degradation by measuring H-O1WO3LFO6-OH level measured at 120 mins by LCMS analysis; assay type: protein assay
[29] = biological target: T1, Trypsin; experiment: Stability of compound assessed as trypsin (unknown origin) mediated compound degradation by measuring H-O7IGAVLO13VL-NH2 level measured at 60 mins by LCMS analysis; assay type: protein assay
[30] = biological target: T1, Trypsin; experiment: Stability of compound assessed as trypsin (unknown origin) mediated compound degradation by measuring H-O1WO3LFO6O7-OH level measured at 270 mins by LCMS analysis; assay type: protein assay
[31] = biological target: T1, Trypsin; experiment: Stability of compound assessed as trypsin (unknown origin) mediated compound degradation by measuring H-O1WO3LFO6O7IGAVLO13VL-NH2 level measured at 120 mins by LCMS analysis; assay type: protein assay
[32] = biological target: T1, Trypsin; experiment: Stability of compound assessed as trypsin (unknown origin) mediated compound degradation by measuring H-O1WO3LFO6O7-OH level measured at 60 mins by LCMS analysis; assay type: protein assay
[33] = biological target: T1, Trypsin; experiment: Stability of compound assessed as trypsin (unknown origin) mediated compound degradation by measuring H-O1WO3LFO6O7IGAVLO13-OH level measured at 270 mins by LCMS analysis; assay type: protein assay
[34] = biological target: T1, Trypsin; experiment: Stability of compound assessed as trypsin (unknown origin)-mediated compound degradation measured at 5 mins by LCMS analysis; assay type: ADME, protein assay
[35] = biological target: T1, Trypsin; experiment: Stability of compound assessed as trypsin (unknown origin)-mediated compound degradation measured at 3 mins by LCMS analysis; assay type: ADME, protein assay; conditions: 0.05 h

Compound: CC[C@H](C)[C@H](NC(=O)[C@H](CCCN)NC(=O)[C@H](CCCN)NC(=O)[C@H](Cc1ccccc1)NC(=O)[C@H](CC(C)C)NC(=O)[C@H](CCCN)NC(=O)[C@H](Cc1c[nH]c2ccccc12)NC(=O)[C@@H](N)CCCN)C(=O)NCC(=O)N[C@@H](C)C(=O)N[C@H](C(=O)N[C@@H](CC(C)C)C(=O)N[C@@H](CCCN)C(=O)N[C@H](C(=O)N[C@@H](CC(C)C)C(N)=O)C(C)C)C(C)C [listing 1 of 2 here]
selectivity ratio at 30 min [1]: > 31
selectivity ratio at 30 min [2]: > 125
HC50 at 0.5 h [3]: > 1000 µg/mL
selectivity ratio at 30 min [4]: > 250
hemolysis at 0.5 h [5]: 10%
selectivity ratio at 30 min [6]: > 125
metabolised at 4.5 h [7]: 58%

Compound: CC[C@H](C)[C@H](NC(=O)[C@H](CCCN)NC(=O)[C@H](CCCN)NC(=O)[C@H](Cc1ccccc1)NC(=O)[C@H](CC(C)C)NC(=O)[C@H](CCCN)NC(=O)[C@H](Cc1c[nH]c2ccccc12)NC(=O)[C@@H](N)CCCN)C(=O)NCC(=O)N[C@@H](C)C(=O)N[C@H](C(=O)N[C@@H](CC(C)C)C(=O)N[C@@H](CCCN)C(=O)N[C@H](C(=O)N[C@@H](CC(C)C)C(N)=O)C(C)C)C(C)C [listing 2 of 2 here]
MIC [8]: 4 µg/mL (≈ 2.35 µM)
MIC [9]: 32 µg/mL (≈ 18.8 µM)
MIC [10]: 8 µg/mL (≈ 4.71 µM)
MIC [11]: 8 µg/mL (≈ 4.71 µM)

Compound: CC[C@H](C)[C@H](NC(=O)[C@H](CCCN)NC(=O)[C@H](CCCN)NC(=O)[C@H](Cc1ccccc1)NC(=O)[C@H](CC(C)C)NC(=O)[C@H](CCCN)NC(=O)[C@H](Cc1c[nH]c2ccccc12)NC(=O)[C@@H](N)CCCN)C(=O)NCC(=O)N[C@H](C)C(=O)N[C@H](C(=O)N[C@@H](CC(C)C)C(=O)N[C@@H](CCCN)C(=O)N[C@H](C(=O)N[C@@H](CC(C)C)C(N)=O)C(C)C)C(C)C
Drug degradation [12]: 2.8%
Drug degradation [13]: 0.9%
Drug degradation [14]: 0.6%
Drug degradation [15]: 5.6%
Drug degradation [16]: 0.4%
Drug degradation [17]: 0.5%
Drug degradation [18]: 4.3%
Drug degradation [19]: 17.3%
Drug degradation [20]: 58.3%
Drug degradation [21]: 1.6%
Drug degradation [22]: 4%
Drug degradation [23]: 89.4%
Drug degradation [24]: 2.5%
Drug degradation [25]: 1%
Drug degradation [26]: 98.1%
Drug degradation [27]: 12.1%
Drug degradation [28]: 8.4%
Drug degradation [29]: 0.9%
Drug degradation [30]: 7.6%
Drug degradation [31]: 79.4%
Drug degradation [32]: 2.1%
Drug degradation [33]: 2.2%

MIC [8]: 2 µg/mL (≈ 1.01 µM)
MIC [9]: 8 µg/mL (≈ 4.05 µM)
Stability [34]: Stable
MIC [10]: 4 µg/mL (≈ 2.03 µM)
MIC [11]: 16 µg/mL (≈ 8.1 µM)
Compound: CC[C@H](C)[C@@H]1NC(=O)[C@H](CCCCN)NC(=O)[C@H](CCCCN)NC(=O)[C@H](Cc2ccccc2)NC(=O)[C@H](CC(C)C)NC(=O)[C@H](CCCCN)NC(=O)[C@H](Cc2c[nH]c3ccccc23)NC(=O)[C@H](CCCCN)NC(=O)[C@@H](N)CSSC[C@@H](C(N)=O)NC(=O)[C@H](CC(C)C)NC(=O)[C@H](C(C)C)NC(=O)[C@H](CCCCN)NC(=O)[C@H](CC(C)C)NC(=O)[C@H](C(C)C)NC(=O)[C@H](C)NC(=O)CNC1=O (H-CKWKLFKKIGAVLKVLC-NH2; disulfide 1-17)
selectivity ratio at 30 min [1]: > 125
selectivity ratio at 30 min [2]: > 250
HC50 at 0.5 h [3]: > 1000 µg/mL
selectivity ratio at 30 min [4]: > 500
hemolysis at 0.5 h [5]: 10%
selectivity ratio at 30 min [6]: > 63

MIC [8]: 4 µg/mL
Stability [35]: Unstable
MIC [9]: 32 µg/mL
MIC [10]: 4 µg/mL
MIC [11]: 8 µg/mL
Compound: H-KWKLFKKIGAVLKVL-NH2
selectivity ratio at 30 min [1]: 22
selectivity ratio at 30 min [2]: 173
HC50 at 0.5 h [3]: 690 µg/mL
selectivity ratio at 30 min [4]: 173
hemolysis at 0.5 h [5]: 10%
selectivity ratio at 30 min [6]: 86
